From publication PMC10451377, “Rationally Designed Pyrimidine Compounds: Promising Novel Antibiotics for the Treatment of Staphylococcus aureus-Associated Bovine Mastitis” (Antibiotics, 2023) come the findings set out here.

Assay [1] deals with Escherichia coli ΔlptD4213. Kind of assay: microbe, parasite or virus in culture. The class given is cell-based. To be noted: read-out: Broth Microdilution MIC. The text has this: Reference strains for this study (S. aureus ATCC 29213, ATCC 29740 [bovine mastitis strain Newbould], S. epidermidis ATCC 12228, E. coli ATCC 35695, E. faecalis ATCC 29212) were obtained from the American Type Culture Collection (ATCC, Rockville, MD). S. aureus strains CMRSA-10 and CMRSA-2 were obtained from the Laboratoire de santé publique du Québec (LSPQ, Sainte-Anne-de-Bellevue, QC, Canada) and are Canadian CA-MRSA USA-300 and HA-MRSA USA-100 clones, respectively. The strain E. coli imp4213 (lptD), used as a control in MIC assays, is a derivative of E. coli ATCC 35695 (E. coli MC4100) with an increased membrane permeability. […] Other MRSA strains used in this study are clinical isolates of human origin obtained from the microbiology laboratory of the Centre Hospitalier Universitaire de Sherbrooke (CHUS, Sherbrooke, QC, Canada). Bovine mastitis strains (S. aureus, S. chromogenes, S. haemolyticus, S. hominis, S. simulans) were obtained from the Canadian Bovine Mastitis and Milk Quality Research Network (CBRQMN, St-Hyacinthe, QC, Canada). Among these strains, S. aureus 2117 is a high producer of biofilm and was used in the biofilm-eradication assay. S. epidermidis isolates were provided by Centre de Recherche en Infectiologie (CRI) de Québec (Québec, QC, Canada).
For orientation: Broth dilution looks for growth in wells or tubes with falling amounts of substance.

In assay [2] the test system is Escherichia coli ATCC 35695. Kind of assay: Broth microdilution MIC. The settings on record: ATCC35695, read-out: Broth Microdilution MIC.
Assay [3] concerns S. aureus bovine strain 2117 embedded in preformed biofilm. Description: Biofilm-eradication test (MBEC assay). The settings on record: 24 h preformed biofilm. The class given is cell-based, Staphylococcus aureus. As for the experimental part: The viability of bacteria in preformed biofilms treated with PC206 was evaluated using the MBEC assay™ system (formerly the Calgary Biofilm Device). The device consists of a plastic lid with 96 pegs and a 96-well plate. […] Plates were incubated at 35 °C for 24 h with agitation (120 rpm). […] The pegs were washed three times with PBS and the biofilm was sonicated for 10 min, and then transferred into a new 96-well base plate. The 96-well plate was centrifuged for 5 min at 180 g to recover the detached bacteria.

In assay [4] the test system is guanine riboswitch-lacZ fusion construct (xpt-lacZ). Kind of assay: Riboswitch regulation assay (lacZ-gene reporter). Type of assay: cell-based, B. subtilis. The settings on record: concentration as low as 1 µg/mL. The text has this: The novel pyrimidine compounds, especially PC206, display specificity and potency against some staphylococci but not the other bacterial genus (Table 1 and Table 2). Because they are structurally derived from PC1 and PC2, these novel antibiotic candidates are expected to have the same mode of action. […] To verify this hypothesis, a strain of B. subtilis with a guanine riboswitch-lacZ fusion construct (named xpt-lacZ) integrated in its chromosome was exposed to these new antimicrobials. […] Therefore, it is an adequate reporter species. The metabolization of substrate ONPG into colored ONP was normalized by the bacterial suspension absorbance at 600 nm (Miller units) and relativized to the untreated condition.
β-galactosidase gene expression in the presence of the new pyrimidine analogs was studied, using an xpt-lacZ transcriptional fusion construct integrated in the genome of B. subtilis as previously described. Briefly, cultures were grown for 5 h at 35 °C in CAMHB, from an initial optical density of 0.05 at 600 nm (OD600), and then diluted 1:20 and in the presence of different concentrations of the compounds tested. Cultures were centrifuged for 10 min at 13,100 rpm, the supernatant was discarded, and pellets were suspended in a Z-buffer (NaH2PO4 40 mM, Na2HPO4 60 mM, MgSO4 1 mM, KCl 10 mM). Cultures OD600 were measured, and bacteria were then lysed with lysozyme (1 mg/mL) and β-mercaptoethanol 50 mM for 30 min. Lysates were centrifuged for 10 min at 13,100 rpm, and supernatants were incubated for 5 min at 30 °C with the substrate orthonitrophenyl-β-galactoside (ONPG; Sigma Aldrich). Reactions were stopped with Na2CO3 1M, supernatants OD420 were measured, and Miller units were calculated. A decrease in β-galactosidase activity indicated binding of the test compound to the riboswitch. Guanine and oxacillin were used as […] controls, respectively. The formula to measure Miller units is as follows: Millerunits=1000×OD420/t·v·OD600
Here, t represents the time of incubation with ONPG, and v represents the volume of the reaction.

In brackets after ≈: the same amount, converted by molar mass.

For `CC(C)(O/N=C(\C(=O)N[C@@H]1C(=O)N2C(C(=O)[O-])=C(C[n+]3ccccc3)CS[C@H]12)c1csc(N)n1)C(=O)O` [CAZ, ceftazidime, reference compound], the MIC came to 0.03 µg/mL (≈ 0.0549 µM) in assay [1] and 0.25 µg/mL (≈ 0.457 µM) in assay [2].

As for `CNC(C)C1CCC(N)C(OC2C(N)CC(N)C(OC3OCC(C)(O)C(NC)C3O)C2O)O1` (stereo not shown) [Gentamicin, reference compound], the “Lowest concentration that significantly reduced CFU/peg” value in assay [3] worked out at 2 µg/mL.

For `Nc1nc2nc[nH]c2c(=O)[nH]1` [Guanine, reference compound], in assay [4], the “Effect on lacZ expression” value was “strongly inhibited lacZ expression”.
